± gives the expanded uncertainty stated by the source.
Legend:
[1] = molar heat capacity at constant pressure; wn = mass fraction of the nth substance listed; conditions: 3000 kPa, Liquid, Flow calorimetry
[2] = wn = mass fraction of the nth substance listed; conditions: 3000 kPa, Liquid; for mass density: Vibrating tube method; for viscosity: Moving piston method

N#C[S-].[Na+] [sodium thiocyanate] + N
Conditions	mass density [kg/m3]	molar heat capacity at constant pressure [J/K/mol]	viscosity [mPa·s]
[1], 304.17 K, w2 = 0.4992	–	63.48 ± 0.84	–
[1], 304.17 K, w2 = 0.5988	–	72.55 ± 0.75	–
[1], 304.17 K, w2 = 0.7013	–	76.74 ± 0.69	–
[1], 304.17 K, w2 = 0.9	–	81.53 ± 0.57	–
[1], 314.14 K, w2 = 0.4992	–	64.61 ± 0.84	–
[1], 314.14 K, w2 = 0.5988	–	72.3 ± 0.75	–
[1], 314.14 K, w2 = 0.7013	–	77.73 ± 0.69	–
[1], 314.14 K, w2 = 0.7961	–	81.14 ± 0.63	–
[1], 314.14 K, w2 = 0.9	–	81.93 ± 0.57	–
[1], 324.11 K, w2 = 0.4992	–	64.64 ± 0.84	–
[1], 324.11 K, w2 = 0.5988	–	72.13 ± 0.75	–
[1], 324.11 K, w2 = 0.7013	–	77.86 ± 0.69	–
[1], 324.11 K, w2 = 0.7961	–	82.16 ± 0.63	–
[1], 324.11 K, w2 = 0.9	–	83.77 ± 0.57	–
[1], 334.09 K, w2 = 0.4992	–	65.26 ± 0.84	–
[1], 334.09 K, w2 = 0.5988	–	72.48 ± 0.75	–
[1], 334.09 K, w2 = 0.7013	–	78.17 ± 0.69	–
[1], 334.09 K, w2 = 0.7961	–	82.8 ± 0.63	–
[1], 334.09 K, w2 = 0.9	–	85.93 ± 0.57	–
[1], 344.07 K, w2 = 0.4992	–	65.94 ± 0.84	–
[1], 344.07 K, w2 = 0.5988	–	73.3 ± 0.75	–
[1], 344.07 K, w2 = 0.7013	–	79.2 ± 0.69	–
[1], 354.06 K, w2 = 0.4992	–	67.29 ± 0.84	–
[1], 354.06 K, w2 = 0.5988	–	74.12 ± 0.75	–
[1], 364.15 K, w2 = 0.4992	–	70.3 ± 0.84	–
[2], 269.4 K, w2 = 0.8921	707.7 ± 2	–	–
[2], 269.8 K, w2 = 0.8921	–	–	0.27 ± 0.05
[2], 270.4 K, w2 = 0.614	896.5 ± 2	–	–
[2], 270.4 K, w2 = 0.6824	850 ± 2	–	–
[2], 270.5 K, w2 = 0.4998	965.7 ± 2	–	–
[2], 270.5 K, w2 = 0.797	772.7 ± 2	–	–
[2], 270.6 K, w2 = 0.614	–	–	1.41 ± 0.05
[2], 270.6 K, w2 = 0.6824	–	–	0.82 ± 0.05
[2], 270.8 K, w2 = 0.4998	–	–	3.47 ± 0.05
[2], 270.8 K, w2 = 0.797	–	–	0.44 ± 0.05
[2], 274.8 K, w2 = 0.614	892.6 ± 2	–	–
[2], 274.8 K, w2 = 0.797	767.4 ± 2	–	–
[2], 274.9 K, w2 = 0.614	–	–	1.27 ± 0.05
[2], 274.9 K, w2 = 0.6824	848 ± 2	–	0.77 ± 0.05
[2], 275 K, w2 = 0.4998	962.2 ± 2	–	3.08 ± 0.05
[2], 275 K, w2 = 0.797	–	–	0.4 ± 0.05
[2], 275.2 K, w2 = 0.8921	699.9 ± 2	–	–
[2], 275.4 K, w2 = 0.8921	–	–	0.25 ± 0.05
[2], 279.3 K, w2 = 0.6824	844 ± 2	–	–
[2], 279.4 K, w2 = 0.614	888.8 ± 2	–	1.14 ± 0.05
[2], 279.4 K, w2 = 0.6824	–	–	0.7 ± 0.05
[2], 279.4 K, w2 = 0.797	761.7 ± 2	–	0.37 ± 0.05
[2], 279.5 K, w2 = 0.4998	959.3 ± 2	–	2.75 ± 0.05
[2], 283.8 K, w2 = 0.6824	839 ± 2	–	–
[2], 283.9 K, w2 = 0.797	756.4 ± 2	–	–
[2], 284 K, w2 = 0.614	884.9 ± 2	–	1.06 ± 0.05
[2], 284 K, w2 = 0.6824	–	–	0.65 ± 0.05
[2], 284.1 K, w2 = 0.4998	955.9 ± 2	–	2.43 ± 0.05
[2], 284.1 K, w2 = 0.797	–	–	0.35 ± 0.05
[2], 284.2 K, w2 = 0.8921	686.6 ± 2	–	–
[2], 284.3 K, w2 = 0.8921	–	–	0.22 ± 0.05
[2], 288.6 K, w2 = 0.614	881.6 ± 2	–	–
[2], 288.6 K, w2 = 0.6824	834 ± 2	–	–
[2], 288.6 K, w2 = 0.797	750.7 ± 2	–	–
[2], 288.7 K, w2 = 0.4998	952.2 ± 2	–	2.2 ± 0.05
[2], 288.7 K, w2 = 0.6824	–	–	0.61 ± 0.05
[2], 288.7 K, w2 = 0.797	–	–	0.33 ± 0.05
[2], 293.3 K, w2 = 0.614	878.3 ± 2	–	–
[2], 293.3 K, w2 = 0.6824	831 ± 2	–	0.57 ± 0.05
[2], 293.4 K, w2 = 0.4998	948.2 ± 2	–	1.95 ± 0.05
[2], 293.4 K, w2 = 0.614	–	–	0.89 ± 0.05
[2], 293.4 K, w2 = 0.797	745.1 ± 2	–	0.31 ± 0.05
[2], 293.5 K, w2 = 0.8921	674 ± 2	–	0.2 ± 0.05
[2], 298 K, w2 = 0.614	–	–	0.83 ± 0.05
[2], 298 K, w2 = 0.6824	828 ± 2	–	0.52 ± 0.05
[2], 298.1 K, w2 = 0.4998	–	–	1.73 ± 0.05
[2], 298.1 K, w2 = 0.614	875.8 ± 2	–	–
[2], 298.2 K, w2 = 0.4998	944.6 ± 2	–	–
[2], 302.7 K, w2 = 0.797	–	–	0.28 ± 0.05
[2], 302.8 K, w2 = 0.614	870 ± 2	–	0.76 ± 0.05
[2], 302.8 K, w2 = 0.6824	–	–	0.49 ± 0.05
[2], 302.8 K, w2 = 0.8921	–	–	0.18 ± 0.05
[2], 302.9 K, w2 = 0.4998	–	–	1.57 ± 0.05
[2], 302.9 K, w2 = 0.6824	821 ± 2	–	–
[2], 302.9 K, w2 = 0.797	734.7 ± 2	–	–
[2], 303 K, w2 = 0.4998	941 ± 2	–	–
[2], 303 K, w2 = 0.8921	660.5 ± 2.1	–	–
[2], 307.5 K, w2 = 0.614	–	–	0.71 ± 0.05
[2], 307.5 K, w2 = 0.6824	–	–	0.46 ± 0.05
[2], 307.5 K, w2 = 0.797	–	–	0.26 ± 0.05
[2], 307.6 K, w2 = 0.4998	–	–	1.41 ± 0.05
[2], 307.6 K, w2 = 0.614	866.2 ± 2	–	–
[2], 307.6 K, w2 = 0.6824	817 ± 2	–	–
[2], 307.6 K, w2 = 0.797	729.5 ± 2	–	–
[2], 307.7 K, w2 = 0.4998	937.1 ± 2	–	–
[2], 312.2 K, w2 = 0.6824	–	–	0.43 ± 0.05
[2], 312.2 K, w2 = 0.797	–	–	0.24 ± 0.05
[2], 312.2 K, w2 = 0.8921	–	–	0.16 ± 0.05
[2], 312.3 K, w2 = 0.4998	–	–	1.27 ± 0.05
[2], 312.3 K, w2 = 0.614	–	–	0.66 ± 0.05
[2], 312.3 K, w2 = 0.6824	811 ± 2	–	–
[2], 312.4 K, w2 = 0.4998	933.3 ± 2	–	–
[2], 312.4 K, w2 = 0.614	862.3 ± 2	–	–
[2], 312.4 K, w2 = 0.797	724.2 ± 2	–	–
[2], 312.4 K, w2 = 0.8921	648.1 ± 2.1	–	–
[2], 316.8 K, w2 = 0.797	–	–	0.23 ± 0.05
[2], 317 K, w2 = 0.614	857.4 ± 2	–	0.62 ± 0.05
[2], 317 K, w2 = 0.6824	–	–	0.4 ± 0.05
[2], 317.1 K, w2 = 0.4998	–	–	1.15 ± 0.05
[2], 317.1 K, w2 = 0.797	718.9 ± 2	–	–
[2], 317.2 K, w2 = 0.4998	929.3 ± 2	–	–
[2], 317.2 K, w2 = 0.6824	807 ± 2	–	–
[2], 321.5 K, w2 = 0.797	–	–	0.22 ± 0.05
[2], 321.6 K, w2 = 0.8921	–	–	0.15 ± 0.05
[2], 321.7 K, w2 = 0.614	–	–	0.57 ± 0.05
[2], 321.7 K, w2 = 0.6824	–	–	0.38 ± 0.05
[2], 321.8 K, w2 = 0.4998	–	–	1.06 ± 0.05
[2], 321.8 K, w2 = 0.614	852.4 ± 2	–	–
[2], 321.8 K, w2 = 0.797	713.6 ± 2	–	–
[2], 321.9 K, w2 = 0.4998	925.5 ± 2	–	–
[2], 321.9 K, w2 = 0.6824	800.5 ± 2	–	–
[2], 322 K, w2 = 0.8921	635.4 ± 2.1	–	–
[2], 326.4 K, w2 = 0.797	–	–	0.21 ± 0.05
[2], 326.5 K, w2 = 0.614	–	–	0.53 ± 0.05
[2], 326.5 K, w2 = 0.6824	–	–	0.36 ± 0.05
[2], 326.6 K, w2 = 0.4998	–	–	1 ± 0.05
[2], 326.6 K, w2 = 0.614	846.9 ± 2	–	–
[2], 326.6 K, w2 = 0.797	708.4 ± 2	–	–
[2], 326.7 K, w2 = 0.4998	921.4 ± 2	–	–
[2], 326.7 K, w2 = 0.6824	795 ± 2	–	–
[2], 331 K, w2 = 0.8921	–	–	0.13 ± 0.05
[2], 331.1 K, w2 = 0.797	–	–	0.2 ± 0.05
[2], 331.2 K, w2 = 0.614	–	–	0.51 ± 0.05
[2], 331.2 K, w2 = 0.6824	–	–	0.35 ± 0.05
[2], 331.4 K, w2 = 0.4998	–	–	0.92 ± 0.05
[2], 331.4 K, w2 = 0.614	843.1 ± 2	–	–
[2], 331.4 K, w2 = 0.6824	792 ± 2	–	–
[2], 331.4 K, w2 = 0.797	701 ± 2.1	–	–
[2], 331.5 K, w2 = 0.4998	917.4 ± 2	–	–
[2], 335.7 K, w2 = 0.797	–	–	0.19 ± 0.05
[2], 336 K, w2 = 0.6824	–	–	0.33 ± 0.05
[2], 336.1 K, w2 = 0.614	–	–	0.47 ± 0.05
[2], 336.2 K, w2 = 0.614	838.1 ± 2	–	–
[2], 336.2 K, w2 = 0.797	692.7 ± 2.1	–	–
[2], 336.3 K, w2 = 0.4998	913.3 ± 2	–	0.87 ± 0.05
[2], 336.3 K, w2 = 0.6824	783.1 ± 2.1	–	–
[2], 340.6 K, w2 = 0.797	–	–	0.18 ± 0.05
[2], 340.8 K, w2 = 0.614	–	–	0.46 ± 0.05
[2], 340.8 K, w2 = 0.6824	–	–	0.31 ± 0.05
[2], 341 K, w2 = 0.797	686.7 ± 2	–	–
[2], 341.1 K, w2 = 0.4998	–	–	0.82 ± 0.05
[2], 341.1 K, w2 = 0.614	832.6 ± 2	–	–
[2], 341.1 K, w2 = 0.6824	775.2 ± 2	–	–
[2], 341.2 K, w2 = 0.4998	909.2 ± 2	–	–
[2], 345.6 K, w2 = 0.614	–	–	0.43 ± 0.05
[2], 345.9 K, w2 = 0.4998	–	–	0.77 ± 0.05
[2], 346 K, w2 = 0.4998	905.1 ± 2.6	–	–
[2], 346 K, w2 = 0.614	826.5 ± 2.6	–	–
[2], 350.2 K, w2 = 0.614	–	–	0.4 ± 0.05
[2], 350.4 K, w2 = 0.4998	–	–	0.73 ± 0.05
[2], 350.9 K, w2 = 0.4998	900.9 ± 2.6	–	–
[2], 359.7 K, w2 = 0.4998	–	–	0.65 ± 0.05
[2], 369.5 K, w2 = 0.4998	–	–	0.58 ± 0.05

Reference: the NIST ThermoML archive (doi:10.1021/je200038n)
